For one experiment, the target named is T1, CHRM1 (Homo sapiens, UniProt P11229).
T1 sequence (P11229 1-460): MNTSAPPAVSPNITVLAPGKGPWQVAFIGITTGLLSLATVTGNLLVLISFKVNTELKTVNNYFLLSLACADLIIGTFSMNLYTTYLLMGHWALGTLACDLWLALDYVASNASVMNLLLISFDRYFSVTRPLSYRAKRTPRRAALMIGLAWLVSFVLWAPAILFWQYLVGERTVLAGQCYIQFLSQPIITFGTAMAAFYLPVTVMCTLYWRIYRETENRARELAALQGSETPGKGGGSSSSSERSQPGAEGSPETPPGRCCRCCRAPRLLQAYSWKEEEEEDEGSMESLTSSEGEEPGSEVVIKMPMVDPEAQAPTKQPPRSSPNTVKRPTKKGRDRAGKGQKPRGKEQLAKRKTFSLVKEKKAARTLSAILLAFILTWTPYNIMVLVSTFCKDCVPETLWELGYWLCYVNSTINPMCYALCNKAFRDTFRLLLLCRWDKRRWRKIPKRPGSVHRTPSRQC
Kind of experiment: cell-based. Also on record: species or system HEK293; Fluo-4 Direct calcium mobilization on FLIPR-Tetra. To be noted: Assay=Calcium, agonist mode, % of control agonist.

The next experiment has as its target T2, 5-HT3 (Homo sapiens, UniProt P46098).
T2 construct: gene HTR3A
Kind of experiment: biochemical. Also on record: species or system HEK293; PDSP competitive radioligand binding, membranes of transfected HEK293 cells, filtration, Ki by Cheng-Prusoff. As to the method: (§1) Competitive radioligand binding assays were performed at the NIMH Psychoactive Drug Screening Program (PDSP) using membranes from transiently transfected HEK293 cells in 96-well format as described. Complete, target-specific protocols are available at the PDSP website (https://pdsp.unc.edu/pdspweb/?site=assays). Primary screenings were run at a single test concentration (10 µM) in quadruplicate. […] Secondary assays were conducted in triplicate using 12-point serial dilutions (0, 0.1, 0.3, 1, 3, 10, 30, 100, 300 nM; 1, 3, 10 µM). Assays were performed in a final volume of 125 µL per well in binding buffer, as detailed in the NIMH PDSP protocols (e.g., standard binding buffer: 50 mM Tris-HCl, pH 7.4, 10 mM MgCl2, 0.1 mM EDTA). Radioligand concentrations were chosen near the target-specific Kd. Total and nonspecific binding were defined in the absence and presence, respectively, of 10 µM reference ligand specific for each receptor. After 90 min incubation at room temperature, reactions were terminated by vacuum filtration onto 0.3% polyethyleneimine-pretreated UniFilter-96 GF/C Microplates using a FilterMate harvester, washed three times with ice-cold buffer (50 mM Tris HCl, pH 7.4), dried, treated with MicroScint-O [compound left out] scintillation cocktails, and counted on a MicroBeta counter. Equilibrium inhibition constants (Ki) were calculated from fitted IC50 values using the Cheng–Prusoff equation [14] with the assay-specific radioligand concentration and Kd. TABLE 1. […] Results represented mean ± SEM from a minimum of 3 independent assays, each in triplicate. ND=not determined.

A further experiment addresses T3, D5 (Homo sapiens, UniProt P21918).
T3 construct: gene DRD5
Kind of experiment: biochemical. The arrangement: species or system HEK293; PDSP competitive radioligand binding, membranes of transfected HEK293 cells, filtration, Ki by Cheng-Prusoff. As to the method: as §1

The next experiment addresses T4, DOR (Homo sapiens, UniProt P41143).
T4 construct: gene OPRD1
Kind of experiment: biochemical. The arrangement: species or system HEK293; PDSP competitive radioligand binding, membranes of transfected HEK293 cells, filtration, Ki by Cheng-Prusoff. As to the method: as §1

The target in the next experiment is DRD2 (Homo sapiens, UniProt P14416). Kind of experiment: biochemical. The arrangement: species or system HEK293; PDSP competitive radioligand binding, membranes of transfected HEK293 cells, filtration, Ki by Cheng-Prusoff. Here is the method:
as §1

Another experiment concerns the target T5, MOR (Homo sapiens, UniProt P35372).
T5 construct: gene OPRM1
Kind of experiment: biochemical. The arrangement: species or system HEK293; PDSP competitive radioligand binding, membranes of transfected HEK293 cells, filtration, Ki by Cheng-Prusoff. Here is the method: as §1

The next experiment addresses T6, SERT (Homo sapiens, UniProt P31645).
T6 construct: gene SLC6A4
Kind of experiment: biochemical. The arrangement: species or system HEK293; PDSP competitive radioligand binding, membranes of transfected HEK293 cells, filtration, Ki by Cheng-Prusoff. As to the method:
as §1

The next experiment addresses T7, α1B (Homo sapiens, UniProt P35368).
T7 construct: gene ADRA1B
Kind of experiment: biochemical. Also on record: species or system HEK293; PDSP competitive radioligand binding, membranes of transfected HEK293 cells, filtration, Ki by Cheng-Prusoff. As to the method:
as §1

Another experiment addresses T8, α1D (Homo sapiens, UniProt P25100).
T8 construct: gene ADRA1D
Kind of experiment: biochemical. The arrangement: species or system HEK293; PDSP competitive radioligand binding, membranes of transfected HEK293 cells, filtration, Ki by Cheng-Prusoff. As to the method: as §1

A further experiment concerns the target T9, β1 (Homo sapiens, UniProt P08588).
T9 construct: gene ADRB1
Kind of experiment: biochemical. The arrangement: species or system HEK293; PDSP competitive radioligand binding, membranes of transfected HEK293 cells, filtration, Ki by Cheng-Prusoff. As to the method:
as §1

Setting [1] is: read-out: N-desmethyl-xanomeline (PDSP) pKi (converted).

pKi: −log10 of the molar value. Like-named read-outs stand apart in the source and are kept apart here.

T9 sequence (P08588 whole entry): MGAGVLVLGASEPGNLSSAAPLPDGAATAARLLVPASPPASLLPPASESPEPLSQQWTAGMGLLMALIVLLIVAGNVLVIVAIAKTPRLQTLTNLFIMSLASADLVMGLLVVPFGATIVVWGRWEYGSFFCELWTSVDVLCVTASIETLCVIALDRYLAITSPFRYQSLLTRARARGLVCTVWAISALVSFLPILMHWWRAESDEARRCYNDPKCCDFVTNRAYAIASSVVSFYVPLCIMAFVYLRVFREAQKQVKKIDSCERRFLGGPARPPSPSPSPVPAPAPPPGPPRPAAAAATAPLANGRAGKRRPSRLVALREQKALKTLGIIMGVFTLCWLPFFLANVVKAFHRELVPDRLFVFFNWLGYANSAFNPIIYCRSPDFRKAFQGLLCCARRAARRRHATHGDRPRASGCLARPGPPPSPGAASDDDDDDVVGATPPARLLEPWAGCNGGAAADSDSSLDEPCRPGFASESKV
DRD2, sequence (P14416 whole entry): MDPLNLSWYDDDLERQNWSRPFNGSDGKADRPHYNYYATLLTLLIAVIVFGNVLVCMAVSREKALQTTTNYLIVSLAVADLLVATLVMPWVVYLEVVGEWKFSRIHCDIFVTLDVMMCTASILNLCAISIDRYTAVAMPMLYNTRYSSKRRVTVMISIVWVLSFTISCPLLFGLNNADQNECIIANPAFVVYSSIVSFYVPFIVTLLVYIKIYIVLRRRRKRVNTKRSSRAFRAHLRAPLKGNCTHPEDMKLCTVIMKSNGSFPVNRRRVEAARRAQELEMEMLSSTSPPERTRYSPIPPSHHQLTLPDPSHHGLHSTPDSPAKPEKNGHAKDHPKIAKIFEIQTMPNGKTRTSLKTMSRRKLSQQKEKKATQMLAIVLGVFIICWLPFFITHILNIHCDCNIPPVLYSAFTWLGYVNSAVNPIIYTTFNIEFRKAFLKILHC
T8 sequence (P25100 whole entry): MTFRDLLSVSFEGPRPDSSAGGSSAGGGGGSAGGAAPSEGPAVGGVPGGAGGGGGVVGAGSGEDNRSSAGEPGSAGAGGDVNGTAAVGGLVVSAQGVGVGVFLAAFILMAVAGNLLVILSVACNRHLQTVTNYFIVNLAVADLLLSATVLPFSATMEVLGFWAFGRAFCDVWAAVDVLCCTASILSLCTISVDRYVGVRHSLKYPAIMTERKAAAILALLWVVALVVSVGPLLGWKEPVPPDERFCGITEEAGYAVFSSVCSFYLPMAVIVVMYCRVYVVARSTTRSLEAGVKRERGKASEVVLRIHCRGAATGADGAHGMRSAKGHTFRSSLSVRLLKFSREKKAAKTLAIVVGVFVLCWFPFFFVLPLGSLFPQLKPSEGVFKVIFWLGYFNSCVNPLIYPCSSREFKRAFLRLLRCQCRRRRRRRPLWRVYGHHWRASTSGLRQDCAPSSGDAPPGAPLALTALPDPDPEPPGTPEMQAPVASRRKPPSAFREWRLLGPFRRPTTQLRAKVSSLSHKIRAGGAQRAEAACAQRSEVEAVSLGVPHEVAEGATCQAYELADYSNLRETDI
T5 sequence (P35372 whole entry): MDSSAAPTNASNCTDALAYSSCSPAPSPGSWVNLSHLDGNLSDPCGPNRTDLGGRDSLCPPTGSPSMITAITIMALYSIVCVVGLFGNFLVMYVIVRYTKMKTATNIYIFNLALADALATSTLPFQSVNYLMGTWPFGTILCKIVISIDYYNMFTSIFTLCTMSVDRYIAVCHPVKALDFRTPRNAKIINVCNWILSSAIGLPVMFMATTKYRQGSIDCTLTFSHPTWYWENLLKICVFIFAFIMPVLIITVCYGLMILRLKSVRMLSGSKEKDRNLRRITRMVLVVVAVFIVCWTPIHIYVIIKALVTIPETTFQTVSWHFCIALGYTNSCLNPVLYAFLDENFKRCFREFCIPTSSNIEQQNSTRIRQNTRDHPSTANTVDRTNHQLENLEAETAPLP
T6 sequence (P31645 whole entry): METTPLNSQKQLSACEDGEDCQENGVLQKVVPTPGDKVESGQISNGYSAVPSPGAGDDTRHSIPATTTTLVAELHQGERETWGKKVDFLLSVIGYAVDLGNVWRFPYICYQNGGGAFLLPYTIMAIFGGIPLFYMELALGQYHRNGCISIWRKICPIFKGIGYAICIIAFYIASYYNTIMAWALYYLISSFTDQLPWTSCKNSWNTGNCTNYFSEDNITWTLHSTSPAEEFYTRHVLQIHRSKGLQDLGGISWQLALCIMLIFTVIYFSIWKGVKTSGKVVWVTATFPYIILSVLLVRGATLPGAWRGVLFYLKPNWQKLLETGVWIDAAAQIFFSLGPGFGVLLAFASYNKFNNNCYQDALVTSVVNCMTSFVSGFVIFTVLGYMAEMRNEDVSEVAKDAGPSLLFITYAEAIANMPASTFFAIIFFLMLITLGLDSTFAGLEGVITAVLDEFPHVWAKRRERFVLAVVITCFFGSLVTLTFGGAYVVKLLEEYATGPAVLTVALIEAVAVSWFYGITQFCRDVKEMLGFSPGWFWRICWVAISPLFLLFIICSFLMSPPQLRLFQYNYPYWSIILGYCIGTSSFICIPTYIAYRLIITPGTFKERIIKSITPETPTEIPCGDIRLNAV
T3 sequence (P21918 whole entry): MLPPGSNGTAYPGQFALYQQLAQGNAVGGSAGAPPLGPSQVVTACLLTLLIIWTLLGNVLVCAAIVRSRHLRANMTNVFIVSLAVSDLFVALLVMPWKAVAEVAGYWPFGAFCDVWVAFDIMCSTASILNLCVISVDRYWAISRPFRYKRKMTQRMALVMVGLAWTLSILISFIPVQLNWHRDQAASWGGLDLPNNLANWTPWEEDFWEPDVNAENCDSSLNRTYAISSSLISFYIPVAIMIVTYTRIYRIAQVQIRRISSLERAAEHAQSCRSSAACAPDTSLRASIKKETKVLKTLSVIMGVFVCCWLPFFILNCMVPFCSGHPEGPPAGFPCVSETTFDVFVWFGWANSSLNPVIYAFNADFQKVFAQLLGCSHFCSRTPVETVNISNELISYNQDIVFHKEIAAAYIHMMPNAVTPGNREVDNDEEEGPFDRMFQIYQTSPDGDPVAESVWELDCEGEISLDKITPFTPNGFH
T4 sequence (P41143 whole entry): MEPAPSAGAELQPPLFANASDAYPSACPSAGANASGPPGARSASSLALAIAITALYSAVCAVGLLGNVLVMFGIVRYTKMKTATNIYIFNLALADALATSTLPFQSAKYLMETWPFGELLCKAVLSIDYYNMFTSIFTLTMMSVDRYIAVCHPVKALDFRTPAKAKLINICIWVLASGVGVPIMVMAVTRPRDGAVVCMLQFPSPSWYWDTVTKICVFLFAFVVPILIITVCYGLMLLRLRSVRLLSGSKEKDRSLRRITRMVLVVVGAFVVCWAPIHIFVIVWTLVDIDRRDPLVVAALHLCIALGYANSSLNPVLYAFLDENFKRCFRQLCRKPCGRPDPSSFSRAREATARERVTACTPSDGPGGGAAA
T2 sequence (P46098 whole entry): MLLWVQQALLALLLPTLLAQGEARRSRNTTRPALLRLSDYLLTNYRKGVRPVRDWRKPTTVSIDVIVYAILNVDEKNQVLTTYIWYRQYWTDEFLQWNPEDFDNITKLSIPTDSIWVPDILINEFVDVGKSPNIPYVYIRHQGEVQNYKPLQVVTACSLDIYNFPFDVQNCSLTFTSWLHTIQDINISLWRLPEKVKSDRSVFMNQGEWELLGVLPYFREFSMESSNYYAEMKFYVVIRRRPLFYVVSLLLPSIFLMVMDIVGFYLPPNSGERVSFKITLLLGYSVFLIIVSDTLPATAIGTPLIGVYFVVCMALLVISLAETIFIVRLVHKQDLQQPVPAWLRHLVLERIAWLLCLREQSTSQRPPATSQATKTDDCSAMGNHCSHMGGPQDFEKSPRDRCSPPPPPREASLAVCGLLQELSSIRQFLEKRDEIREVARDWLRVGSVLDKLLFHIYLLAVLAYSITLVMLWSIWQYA
T7 sequence (P35368 whole entry): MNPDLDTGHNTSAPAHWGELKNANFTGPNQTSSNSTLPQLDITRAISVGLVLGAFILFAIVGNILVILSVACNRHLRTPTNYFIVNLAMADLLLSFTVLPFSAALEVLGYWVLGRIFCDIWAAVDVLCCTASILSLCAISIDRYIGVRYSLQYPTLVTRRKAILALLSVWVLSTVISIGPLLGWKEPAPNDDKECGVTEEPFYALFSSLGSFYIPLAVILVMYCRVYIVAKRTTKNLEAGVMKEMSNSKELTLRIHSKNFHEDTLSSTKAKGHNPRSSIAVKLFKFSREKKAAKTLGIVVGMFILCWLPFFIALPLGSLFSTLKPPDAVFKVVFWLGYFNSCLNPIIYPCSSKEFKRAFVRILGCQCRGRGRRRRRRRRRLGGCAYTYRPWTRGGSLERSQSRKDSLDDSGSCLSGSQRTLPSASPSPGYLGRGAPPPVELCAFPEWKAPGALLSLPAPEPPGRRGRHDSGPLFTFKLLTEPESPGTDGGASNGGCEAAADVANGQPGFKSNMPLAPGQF

`CCCCCCOc1nsnc1C1=CCCNC1` [N-desmethylxanomeline]: the Emax at CHRM1 (HEK293, read-out: N-Desmethyl Xanomeline) is 24.3%. For the same compound, the Ki at 5-HT3 (setting [1]) was 2.4 µM; on D5 (setting [1]), > 10 µM; on DOR (setting [1]), > 10 µM; on DRD2 (setting [1]), 6.61 µM; at MOR (setting [1]), 7.94 µM; on SERT (setting [1]), 1.62 µM. Further, the Ki is 7.24 µM at α1B (setting [1]), 3.31 µM at α1D (setting [1]) and 8.71 µM at β1 (setting [1]).
Take `CCCCCCOc1nsnc1C1=CCCN(C)C1` [Xanomeline]: the Emax on CHRM1 (HEK293, read-out: Xanomeline) is 25.6%. Besides, the pKi at 5-HT3, on D5, on DOR, on DRD2, at MOR and at SERT was < 5.00 each time. The pKi on α1B, at α1D and on β1 was < 5.00 throughout.

The pKi is the Ki on a negative log10 scale, so that one unit is a factor of ten.

Source of the values: publication doi:10.1101/2025.11.20.689572v1 (biorxiv, 2025).
